Assay results from paper PMC9603946, “On the Sensitivity of the Virion Envelope to Lipid Peroxidation” (Microbiology Spectrum, 2022).
Read-outs that look alike come from different tables or passages of the source.

Key:
[1] = tested on: HSV-1; test: HSV-1 virion infectivity (plaquing efficiency) on Vero cells after virion pretreatment; settings: Vero; for EC50: Human alphaherpesvirus 1, Vero
Description: The inocula were removed, and the cells were washed and then incubated at 37°C in 5% CO2 until plaques were visible and well-resolved (about 2 days), at which time they were fixed and stained with crystal violet.
HSV-1 suspensions of 20,000 plaque PFU in 250 μL DMEM were mixed 1:1 with 2-fold serial dilutions of the general peroxidators and were incubated in a water bath for 2 h at 37°C. Next, treated virions were diluted 1:100 before being adsorbed onto cells for 1 h at 37°C. The inocula were removed, and the cells were washed twice with cold DMEM. Infected cells were overlaid with DMEM supplemented with 2% (Vero) or 1% (HFF) methylcellulose and 5% FBS and were incubated at 37°C until plaques were visible and well-resolved, typically in about 2 days. Cell monolayers were fixed and stained with 1% crystal violet in 17% methanol for 18 h at RT. The cells were washed, and the plaques were counted and normalized to those produced by the vehicle treated virions.
To test the effects of lipid soluble antioxidants on virions, 10 μM vitamin E loaded onto 1% carrier BSA in the dark for 4.5 h at RT was incubated with 10^6 HSV-1 virions for 3 h at 37°C. […] The treated virions were diluted 1:100 before infecting cells. […] The mix was incubated for 2 h at 37°C, diluted 1:100, and used to infect cells. The infectivity of an aliquot of treated virions was tested via a plaque assay.

[2] = tested on: HFF cells; test: HFF cell viability after 2 h exposure to lipoperoxidators (CellTiter-Glo); settings: HFF
Description: (§1) The cells were washed twice with warm DMEM before a 100 μL lipoperoxidator solution was transferred with a multichannel pipette from the plate containing the drug dilutions in technical triplicates. The cells were incubated with peroxidators for 2 h at 37°C. Then, the medium was removed, and the cells were washed twice with DMEM at 37°C. The plates were cooled down to RT, and the medium was removed. Then, 50 μL phenol red free DMEM and 50 μL CellTiter-glo Luminiscent Cell Viability Assay (Promega, G7571/2/3) were added and mixed in an orbital shaker for 2 min. Afterwards, 80 μL of the mix was transferred onto white 96-well plates and incubated for 10 min at RT for signal stabilization. The luminescence was read in the Glomax Multidetection System (Promega) with an integration time of 0.5 s.
(§2) The means of the technical triplicates were normalized to the means of the vehicle controls, analyzed via nonlinear regression dose responses, and graphed using GraphPad Prism 9.0. Three or four independent biological replicates were performed for each treatment (n = 3 or 4).
(§3) To evaluate the effects of lipid soluble antioxidants, 10 μM vitamin E was loaded onto carrier 1% BSA in the dark for 4.5 h at RT. The cells were washed twice with DMEM at 37°C and preloaded with 100 μL of 10 μM vitamin E in BSA carrier for 3 h at 37°C. The cells were washed twice again before the addition of any lipoperoxidators. Peroxidators were then added to the cells at working concentrations and incubated for 2 h at 37°C. The peroxidation solution was then removed, and the cells were washed twice with DMEM before analyzing viability. To evaluate the effects of a water soluble antioxidant, the cells were treated with 10 μM vitamin C (final concentration) simultaneously with the lipoperoxidators.

[3] = as above; settings: human, CC50, HFF
Description: as §1, §2, §3

[4] = tested on: Vero cells; test: Viability of Vero cells infected with AMVN-pretreated virions
Description: The inocula were removed, the cells were washed, and the viability was immediately evaluated, mimicking the conditions used to test the direct exposure of the cells to the peroxidators.
After 1 h at 37°C, the cells were washed, and cell viability was evaluated as described.

[5] = tested on: Vero cells; test: Vero cell lipid peroxidation probed with C11-Bodipy; assay type: cell-based, African green monkey; settings: for EC50: Chlorocebus sabaeus, Bodipy probe
Description: The effects of peroxidators have been commonly evaluated against purified lipids and liposomes as a proxy, but they have not been evaluated against virions ([50], [53][–][55]). We instead directly evaluated the extent of virion lipid peroxidation.
To evaluate Vero cell lipoperoxidation with C11-Bodipy, 7.5 × 10^3 cells were seeded into each well of 96-well plates and incubated for 18 h at 37°C in 5% CO2 before preloading them with 1 μM C11-Bodipy for 30 min at 37°C. […] Two hours later, the cells were washed twice and lysed with DMSO:isopropanol. Fluorescence was evaluated in a TECAN Infinite M200 Pro at 550 nm excitation and 580 to 630 nm emission with the reading peak at 600 nm.
To evaluate the effects of a lipid soluble antioxidant, cells or virions were preloaded with vitamin E-BSA for 3 h at 37°C. Vitamin E-BSA containing medium was removed, and the cells were washed twice with DMEM. Liperfluo (20 or 10 μM for cells or virions, respectively) or C11-Bodipy (1 μM for cells or 0.1 mol% for virions) were preloaded into the cells or virions for 30 min at 37°C.
To evaluate the effects of water soluble antioxidants, liperfluo (20 μM for cells or 10 μM for virions) or C11-Bodipy (1 μM for cells or 0.1 mol% for virions) were preloaded into the cells or virions for 30 min at 37°C. […] Fluorescence was evaluated in a TECAN Infinite M200 Pro at 515 nm excitation and 545 nm emission for liperfluo or at 550 nm excitation and 580 to 630 nm emission for C11-Bodipy.

Q: For `CC(C)CC(C)(C#N)N=NC(C)(C#N)CC(C)C` (stereo not drawn) [AMVN, 2,2′-azobis(2,4-dimethylvaleronitrile)], which EC50 ([1]; 2 h, no antioxidant, virions treated 2 h at 37°C) is on record?
A: Its EC50 is 0.8 mM.

Q: What about the EC50 ([1]; virions preloaded with vitamin E (10 μM, BSA carrier)) of the same molecule?
A: Its EC50 is 3.8 mM.

Q: And the EC50 ([1]; with vitamin C (10 μM))?
A: Its EC50 is 2.6 mM.

Q: And the “concentration of maximal inhibition of virion infectivity” value [1]?
A: Its value is 5 mM.

Q: And the “concentration giving a loss of infectivity of about 30%” value ([1]; 2 h at 37°C)?
A: Its value is 0.3 mM.

Q: And the “SI, CC50/EC50” value ([1]; vitamin C)?
A: The value was 1.3.

Q: What about the “SI, CC50/EC50” value ([1]; vitamin E) of the same molecule?
A: The value was 1.2.

Q: What about the “lowest concentration that decreased virion infectivity in the presence of BSA” value ([1]; with BSA) of the same molecule?
A: Its value is 2.5 mM.

Q: And the “lowest effective concentration on infectivity in the presence of the antioxidants” value ([1]; with antioxidants)?
A: Its value is 1.5 mM.

Q: What about the “concentration from which HFF viability was affected” value [2] of the same molecule?
A: Its value is 2000 µM.

Q: And the “PI, CC50 (antioxidant)/CC50” value ([2]; vitamin C)?
A: The value was 0.9.

Q: And the “PI, CC50 (antioxidant)/CC50” value ([2]; vitamin E)?
A: Its value is 1.0.

Q: What about the CC50 at 2 h ([3]; no antioxidant, 2 h at 37°C) of the same molecule?
A: The CC50 at 2 h was 4.8 mM.

Q: And the CC50 at 2 h ([3]; preloaded with vitamin E (10 μM, BSA carrier))?
A: Its CC50 at 2 h is 4.9 mM.

Q: And the CC50 at 2 h ([3]; with vitamin C (10 μM))?
A: Its CC50 at 2 h is 4.4 mM.

Q: And the “decrease of infected cell viability at the highest AMVN concentration” value ([4]; AMVN carried by virions)?
A: Its value is 20 to 30%.

Q: And the “concentration from which AMVN carried by virions had minor effects on infected cell viability” value ([4]; pretreated virions diluted 1:100)?
A: The value was 2000 µM.

Q: What about the “lowest concentration affecting cell lipid peroxidation” value ([5]; C11-Bodipy (Fig. 8)) of the same molecule?
A: The value was 2.5 mM.

Q: And the EC50 ([5]; no antioxidant, read-out: CP50 (concentration of peroxidant that results in 50% peroxidation in cell lipids))?
A: Its EC50 is 2.1 mM.

Q: And the EC50 ([5]; vitamin C, read-out: CP50 (the source's name))?
A: Its EC50 is 1.7 mM.

Q: And the EC50 ([5]; vitamin E, read-out: CP50 (the source's name))?
A: Its EC50 is 3.5 mM.
